Data on 19 compounds can be found in patent US20070027143A1, “Novel substituted 2,3-benzodiazepine derivatives” (priority 2003, published 2007).

What is called ED50 is the dose at which the effect has come halfway, by size or by number of responders. As usually defined, the melting point is the temperature of the solid-liquid transition.

One series relates to rats. As to the kind of experiment: Inhibition of focal ischemia, middle cerebral artery occlusion (MCAO) test. The class given is in vivo. The protocol:
The focal anti-ischemic activity of the compounds of formula (I) or (II) of the present invention was measured by the “middle cerebral artery occlusion” (MCAO) test (Bartus Stroke 11:2265 (1994) and Sydserff et al, Brit. J. Pharmacol. 114:1631 (1995)). […] After a histological process (TTC staining) 24 h later, the infarcted area was determined by a computer assisted scanner program and was compared to the results obtained in a control group treated with the vehicle.

The subject of series [1] is CD1 mice. As to the kind of experiment: Anticonvulsant activity, maximal electroshock seizure (MES) test. The class given is in vivo. The following applies: Mus musculus, 1 h; po., 60 min before induction; read-out: MES (MES 60′) ED50. On the procedure:
(§1) The anti-seizure activity of some of the compounds of the present invention was measured using the electroshock test (J. Pharmacol. Exp. Ther. 106:319 (1952)) and the results are shown in Table 3. The spasmolytic activity of the compounds of the present invention was investigated by using e.g., pentetrazole (J. Pharmacol. Exp. Ther. 108:168 (1953)), strychnine (J. Pharmacol. Exp. Ther. 129:75 (1960)), bemegrid, nicotine, bicuculline, 4-aminopyridine and mercapto-propionic acid for inducing the clonic-tonic seizures and lethality. The investigated compounds were administered orally in three doses using 10 male CD1 mice/dose, usually 60 min before the induction of seizures.
For orientation: In the maximal electroshock model the usual endpoint is tonic extension of the hind limbs.

The test system of series [2] is CD1 mice. As to the kind of experiment: Anticonvulsant activity, pentetrazole induced seizures. The series is classed as in vivo. As to conditions: Mus musculus; po.; read-out: Pentetrazol ED50. The protocol:
as §1

The test system of series [3] is CD1 mice. Kind of series: Anticonvulsant activity, strychnine induced seizures. The series is classed as in vivo. The following applies: Mus musculus; po.; read-out: Strychnine ED50. On the procedure:
as §1

The subject of series [4] is CD1 mice. Kind of series: Anticonvulsant activity, bemegride induced seizures. The series is classed as in vivo. As to conditions: Mus musculus; po.; read-out: Bemegride ED50. The protocol: as §1
Series [5] has as its system CD1 mice. As to the kind of experiment: Anticonvulsant activity, bicuculline induced seizures. The class given is in vivo. As to conditions: Mus musculus; po.; read-out: Bicuculline ED50. The protocol:
as §1

Series [6] relates to CD1 mice. Kind of series: Anticonvulsant activity, nicotine induced seizures. The series is classed as in vivo. As to conditions: Mus musculus; po. The protocol: as §1
The test system of series [7] is CD1 mice. As to the kind of experiment: Anticonvulsant activity, 4-aminopyridine induced seizures. The series is classed as in vivo. As to conditions: Mus musculus; po.; read-out: 4-AP ED50. The protocol:
as §1

Series [8] concerns CD1 mice. Kind of series: Anticonvulsant activity, 3-mercapto-propionic acid induced seizures. The series is classed as in vivo. As to conditions: Mus musculus; po.; read-out: 3-MPA ED50. On the procedure:
as §1

Series [9] has as its system CD1 mice. As to the kind of experiment: Muscle relaxant activity, inclined screen test. The series is classed as in vivo. The following applies: Mus musculus, ip.
The test system of series [10] is CD1 mice. Kind of series: Muscle relaxant activity, rotarod test. The series is classed as in vivo. As to conditions: Mus musculus, ip. In general terms: In the rotarod test animals must keep their balance on a rotating rod.

Counter-ions that a name gives are not always drawn. Marks after values point to notes of the source that are not given here.

Turning to `CC1=NN=C(c2ccc(N)cc2)c2cc3c(cc2C1)OCO3` [GYKI 52466 HCl, 5-(4-aminophenyl)-8-methyl-9H-1,3-dioxolo[4,5-h][2,3]benzodiazepine, reference compound], the “Decrease of the infracted area in % compared to that of the control” value with rats (2 mg/kg iv. 6x in every 30 min, first treatment 120 min after occlusion) is on record as 39* %; in the series on rats (5 mg/kg iv. 6x in every 30 min, first treatment 30 min after occlusion), 34* %; with rats (5 mg/kg iv. 6x in every 30 min, first treatment 120 min after occlusion), 47** %.

`Cc1nnc(N2N=C(c3ccc(N)cc3)c3cc4c(cc3C[C@H]2C)OCO4)o1` [Example 102, (R)-5-(4-Aminophenyl)-8-methyl-7-(5-methyl-1,3,4-oxadiazol-2-yl)-8,9-dihydro-7H-1,3-dioxolo-[4,5-h][2,3]benzodiazepine] yielded a melting point of 145 to 149 °C. For the same compound, the ED50 in the series on CD1 mice [1] was determined as 13.9 mg/kg. The ED50 in the series with CD1 mice [2] was found to be 35.7 mg/kg. The ED50 in the series on CD1 mice [3] amounted to 26.7 mg/kg. Besides, the ED50 in the series on CD1 mice [4] stood at 27.9 mg/kg. In addition, the ED50 with CD1 mice [5] is 25.8 mg/kg. Also, the ED50 in the series on CD1 mice [6] was 31.7 mg/kg. The ED50 in the series with CD1 mice [7] stood at 20.4 mg/kg. The ED50 in the series on CD1 mice [8] was more than 50 mg/kg. Further, in the series on CD1 mice [9], the 50% effect level (ED50) was put at a dose of 14.8 mg/kg. Also, the ED50 in the series on CD1 mice [10] was found to be 2.9 mg/kg.

As to `CCc1nnc(N2N=C(c3ccc(N)cc3)c3cc4c(cc3C[C@H]2C)OCO4)s1` [Example 89, (R)-5-(4-Aminophenyl)-7-(5-ethyl-1,3,4-thiadiazol-2-yl)-8-methyl-8,9-dihydro-7H-1,3-dioxolo-[4,5-h][2,3]benzodiazepine], the melting point is 142 to 144 °C. Moreover, the ED50 in the series with CD1 mice [1] came out at 10.5 mg/kg. In addition, in the series with CD1 mice [2], the ED50 turned out to be 11.5 mg/kg. Further, in the series on CD1 mice [3], the ED50 turned out to be 15.7 mg/kg. The median effective dose (ED50) with CD1 mice [4] was 11.2 mg/kg. For the same compound, the ED50 with CD1 mice [5] is 17.1 mg/kg. Further, the ED50 in the series with CD1 mice [6] came to 45.9 mg/kg. In the series with CD1 mice [7], the ED50 came out at 14.3 mg/kg. Also, the ED50 with CD1 mice [8] was more than 50 mg/kg. Moreover, it took a dose of 4.3 mg/kg to reach the 50% effect level with CD1 mice [9] (ED50). This compound gave an ED50 in the series with CD1 mice [10] of 1.7 mg/kg.

Consider `Nc1ccc(C2=NN(c3nccs3)CCc3cc4c(cc32)OCO4)cc1` [Example 74, 5-(4-Aminophenyl)-7-(2-thiazolyl)-8,9-dihydro-7H-1,3-dioxolo[4,5-h][2,3]benzodiazepine], for which the melting point is 200 to 204 °C.

`CC1Cc2cc3c(cc2C(c2ccc(N)cc2)=NN1c1nnc(C2CC2)s1)OCO3` (racemic) [Example 87, (±)-5-(4-Aminophenyl)-7-(5-cyclopropyl-1,3,4-thiadiazol-2-yl)-8-methyl-8,9-dihydro-7H-1,3-dioxolo[4,5-h][2,3]benzodiazepine] gave a melting point of 145 to 148 °C.

`CC1Cc2cc3c(cc2C(c2ccc([N+](=O)[O-])cc2)=NN1c1nnc(CCl)s1)OCO3` (racemic) [Example 34, (±)-7-(5-Chloromethyl-1,3,4-thiadiazol-2-yl)-8-methyl-5-(4-nitrophenyl)-8,9-dihydro-7H-1,3-dioxolo[4,5-h][2,3]benzodiazepine] registered a melting point of 210 to 211 °C.

Consider `CC1Cc2cc3c(cc2C(c2ccc(N)cc2)=NN1C1=NC(=O)CS1)OCO3` (racemic) [Example 71, (±)-5-(4-Aminophenyl)-7-(4,5-dihydro-4-oxo-thiazol-2-yl)-8-methyl-8,9-dihydro-7H-1,3-dioxolo-[4,5-h][2,3]benzodiazepine], for which the melting point lay within 218 to 220 °C.

`CSCc1nnc(N2N=C(c3ccc(N)c(C)c3)c3cc4c(cc3C[C@H]2C)OCO4)s1` [Example 174, (R)-5-(4-Amino-3-methylphenyl)-8-methyl-7-(5-methylthiomethyl-1,3,4-thiadiazol-2-yl)-8,9-dihydro-7H-1,3-dioxolo[4,5-h][2,3]benzodiazepine] yielded a melting point of 177 to 180 °C.

`Cc1cc(C2=NN(c3nccs3)[C@H](C)Cc3cc4c(cc32)OCO4)cc(C)c1N` [Example 189, (R)-5-(4-Amino-3,5-dimethylphenyl)-8-methyl-7-(thiazol-2-yl)-8,9-dihydro-7H-1,3-dioxolo-[4,5-h][2,3]benzodiazepine] yielded a melting point of 202 to 203 °C.

`CC(=O)Nc1ccc(C2=NN(c3ncc(C)s3)C(C)Cc3cc4c(cc32)OCO4)cc1` (racemic) [Example 120, (±)-5-(4-Acetylaminophenyl)-8-methyl-7-(5-methyl-thiazol-2-yl)-8,9-dihydro-7H-1,3-dioxolo-[4,5-h][2,3]benzodiazepine] came in with a melting point of 176 to 179 °C.

With `Cc1cc(C2=NN(c3nnc(CN)s3)[C@H](C)Cc3cc4c(cc32)OCO4)ccc1N` [Example 176, (R)-5-(4-Amino-3-methylphenyl)-7-(5-aminomethyl-1,3,4-thiadiazol-2-yl)-8-methyl-8,9-dihydro-7H-1,3-dioxolo[4,5-h][2,3]benzodiazepine], the melting point was in the range of 139 to 140 °C.

For the compound `C/C=C/c1nnc(N2N=C(c3ccc([N+](=O)[O-])c(C)c3)c3cc4c(cc3C[C@H]2C)OCO4)s1` [Example 146, (R)-8-Methyl-5-(3-methyl-4-nitrophenyl)-7-{5-[1-(1E)-propen-1-yl]-1,3,4-thiadiazol-2-yl}-8,9-dihydro-7H-1,3-dioxolo[4,5-h][2,3]benzodiazepine], the melting point lay within 232 to 237 °C.

Regarding `Cc1csc(N2N=C(c3ccc(N)cc3)c3cc4c(cc3CC2C)OCO4)n1` (racemic) [Example 63, (±)-5-(4-Aminophenyl)-8-methyl-7-(4-methyl-thiazol-2-yl)-8,9-dihydro-7H-1,3-dioxolo-[4,5-h][2,3]benzodiazepine], the melting point was 190 to 191 °C.

Compound `CC1Cc2cc3c(cc2C(c2ccc(N)cc2)=NN1c1nnn[nH]1)OCO3` (racemic) [Example 107, (±)-5-(4-Aminophenyl)-8-methyl-7-(5-tetrazolyl)-8,9-dihydro-7H-1,3-dioxolo[4,5-h][2,3]benzodiazepine] yielded a melting point of more than 360 °C.

As for `C[C@@H]1Cc2cc3c(cc2C(c2ccc(N)cc2)=NN1c1nnco1)OCO3` [Example 180, (R)-5-(4-Aminophenyl)-8-methyl-7-(1,3,4-oxadiazol-2-yl)-8,9-dihydro-7H-1,3-dioxolo[4,5-h][2,3]benzodiazepine], the melting point lay in the range of 187 to 190 °C.

The compound `Cc1nnc(N2N=C(c3cc(C)c(N)c(C)c3)c3cc4c(cc3C[C@H]2C)OCO4)o1` [Example 191, (R)-5-(4-Amino-3,5-dimethylphenyl)-8-methyl-7-(5-methyl-1,3,4-oxadiazol-2-yl)-8,9-dihydro-7H-1,3-dioxolo[4,5-h][2,3]benzodiazepine] had a melting point of 148 to 150 °C.

Turning to `Cc1nnc(N2N=C(c3cccc(N)c3)c3cc4c(cc3CC2C)OCO4)s1` (racemic) [Example 97, (±)-5-(3-Aminophenyl)-8-methyl-7-(5-methyl-1,3,4-thiadiazol-2-yl)-8,9-dihydro-7H-1,3-dioxolo-[4,5-h][2,3]benzodiazepine], the melting point lay within 197 to 198 °C.

For the compound `CC1Cc2cc3c(cc2C(c2ccc(N)cc2)=NN1C1=NN=C(NC2CC2)[SH]1C)OCO3` (racemic) [Example 92, (±)-5-(4-Aminophenyl)-7-(5-cyclopropylamino-methyl-1,3,4-thiadiazol-2-yl)-8-methyl-8,9-dihydro-7H-1,3-dioxolo[4,5-h][2,3]benzodiazepine], the melting point fell in the range of 135 to 138 °C.

For the compound `Cc1cc(C2=NN(c3nnc(C4CC4)s3)[C@H](C)Cc3cc4c(cc32)OCO4)ccc1[N+](=O)[O-]` [Example 139, (R)-7-(5-Cyclopropyl-1,3,4-thiadiazol-2-yl)-8-methyl-5-(3-methyl-4-nitrophenyl)-8,9-dihydro-7H-1,3-dioxolo[4,5-h][2,3]benzodiazepine], the melting point lay in the range of 126 to 130 °C.
